Measurements reported in US9265738B2, “Small molecule CMKLR1 antagonists in demyelinating disease” (The Board of Trustees of the Leland Stanford Junior …, priority 2012, dated 2016).

Tests used:
mouse CMKLR1 = target: T1, mouse CMKLR1 (Mus musculus, UniProt P97468); assay: Inhibition of chemerin-triggered mouse CMKLR1/L1.2 cell migration; type: cell-based; conditions: 1 nM chemerin
T1 construct: expressed in transfected cells; host or cells: L1.2 cells
T1 sequence (P97468 1-371): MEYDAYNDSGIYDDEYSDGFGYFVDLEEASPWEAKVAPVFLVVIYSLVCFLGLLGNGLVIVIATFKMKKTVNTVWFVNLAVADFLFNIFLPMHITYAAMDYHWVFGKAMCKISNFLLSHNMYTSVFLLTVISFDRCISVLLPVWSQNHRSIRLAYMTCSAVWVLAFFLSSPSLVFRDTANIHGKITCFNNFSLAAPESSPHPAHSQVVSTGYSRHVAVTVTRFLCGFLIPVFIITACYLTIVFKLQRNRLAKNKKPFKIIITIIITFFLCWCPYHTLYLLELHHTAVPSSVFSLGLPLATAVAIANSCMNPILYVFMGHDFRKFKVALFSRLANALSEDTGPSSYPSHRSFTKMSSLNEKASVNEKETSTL
Protocol: 2-(alpha-Naphthoyl)ethyltrimethyl ammonium iodide (aNETA) was tested for inhibition of chemerin-triggered mouse CMKLR1/L1.2 cell migration. mCMKLR1/L1.2 ctx and 1 nM chemerin were used. The assay was performed in 0.5% BSA, buffer (10% FBS), or 100% human serum.

CXCR4 [1] = target: T2, CXCR4 (Homo sapiens, UniProt P61073); assay: CXCR4-dependent MOLT-4 migration to CXCL12; type: cell-based; conditions: MOLT4 human T-cell line; 1 nM CXCL12
T2 construct: endogenous in cells; host or cells: MOLT-4 (human T-cell line)
T2 sequence (P61073 whole entry): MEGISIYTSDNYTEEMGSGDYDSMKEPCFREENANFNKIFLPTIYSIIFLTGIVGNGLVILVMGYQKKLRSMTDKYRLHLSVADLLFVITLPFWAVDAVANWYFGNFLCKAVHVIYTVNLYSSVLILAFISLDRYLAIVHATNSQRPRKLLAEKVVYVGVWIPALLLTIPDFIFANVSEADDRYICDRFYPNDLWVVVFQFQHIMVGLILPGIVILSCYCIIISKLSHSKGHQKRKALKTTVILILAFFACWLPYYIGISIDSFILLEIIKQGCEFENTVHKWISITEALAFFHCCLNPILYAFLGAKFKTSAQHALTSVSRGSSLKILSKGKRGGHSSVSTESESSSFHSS
Protocol: MOLT4 cell ctx (human T-cell line) and 1 nM CXCL12 were used.

CCR9 = target: T3, CCR9 (Homo sapiens, UniProt P51686); assay: CCR9-dependent MOLT-4 migration to CCL25; type: cell-based; conditions: MOLT4 human T-cell line; 250 nM TECK
T3 construct: endogenous in cells; host or cells: MOLT-4 (human T-cell line)
T3 sequence (P51686 1-369): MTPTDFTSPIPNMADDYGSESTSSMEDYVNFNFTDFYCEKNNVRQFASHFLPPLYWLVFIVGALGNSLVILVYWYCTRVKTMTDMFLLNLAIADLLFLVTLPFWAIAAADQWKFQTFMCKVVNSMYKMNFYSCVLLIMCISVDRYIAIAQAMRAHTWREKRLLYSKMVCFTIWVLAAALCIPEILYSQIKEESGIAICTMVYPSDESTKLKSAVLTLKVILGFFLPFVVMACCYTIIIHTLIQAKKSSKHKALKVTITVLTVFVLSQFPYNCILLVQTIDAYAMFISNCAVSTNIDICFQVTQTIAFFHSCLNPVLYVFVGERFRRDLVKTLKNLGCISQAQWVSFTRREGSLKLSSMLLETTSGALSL
Protocol: MOLT4 cell ctx (human T-cell line) and 250 nM TECK were used.

CXCR4 [2] = target: T4, CXCR4 (Mus musculus, UniProt P70658); assay: CXCR4-dependent mouse splenocyte migration to CXCL12; type: cell-based; conditions: 100 nM CXCL12
T4 construct: endogenous in cells; host or cells: mouse splenocytes
T4 sequence (P70658 whole entry): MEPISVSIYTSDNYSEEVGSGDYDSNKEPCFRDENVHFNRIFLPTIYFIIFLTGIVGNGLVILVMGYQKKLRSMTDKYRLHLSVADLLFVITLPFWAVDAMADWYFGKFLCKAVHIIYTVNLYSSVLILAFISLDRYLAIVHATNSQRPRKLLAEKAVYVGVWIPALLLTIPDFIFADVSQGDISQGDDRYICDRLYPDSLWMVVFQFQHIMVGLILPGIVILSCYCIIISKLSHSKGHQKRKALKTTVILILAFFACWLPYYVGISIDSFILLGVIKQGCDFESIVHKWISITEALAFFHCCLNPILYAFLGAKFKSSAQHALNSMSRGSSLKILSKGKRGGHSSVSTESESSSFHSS
Protocol: Splenocyte ctx and 100 nM CXCL12 were used.

CCR7 = target: T5, CCR7 (Mus musculus, UniProt P47774); assay: CCR7-dependent mouse splenocyte migration to CCL19; type: cell-based; conditions: 100 nM CCL19
T5 construct: endogenous in cells; host or cells: mouse splenocytes
T5 sequence (P47774 25-378): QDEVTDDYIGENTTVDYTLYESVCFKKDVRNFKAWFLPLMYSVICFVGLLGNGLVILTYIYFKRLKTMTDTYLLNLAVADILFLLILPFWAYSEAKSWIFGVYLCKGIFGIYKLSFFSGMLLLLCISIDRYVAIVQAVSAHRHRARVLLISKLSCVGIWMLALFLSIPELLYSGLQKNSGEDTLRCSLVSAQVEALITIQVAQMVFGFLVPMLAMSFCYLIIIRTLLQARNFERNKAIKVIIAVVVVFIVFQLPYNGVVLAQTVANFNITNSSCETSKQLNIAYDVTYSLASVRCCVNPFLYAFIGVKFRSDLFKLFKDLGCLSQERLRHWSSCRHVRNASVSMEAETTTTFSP
Protocol: Splenocyte ctx and 100 nM CCL19 were used.

FPR = target: T6, FPR (Mus musculus, UniProt P33766); assay: FPR-dependent mouse BM neutrophil chemotaxis to fMLP; type: cell-based; conditions: 100 nM fMLP
T6 construct: endogenous in cells; host or cells: mouse bone-marrow neutrophils
T6 sequence (P33766 1-364): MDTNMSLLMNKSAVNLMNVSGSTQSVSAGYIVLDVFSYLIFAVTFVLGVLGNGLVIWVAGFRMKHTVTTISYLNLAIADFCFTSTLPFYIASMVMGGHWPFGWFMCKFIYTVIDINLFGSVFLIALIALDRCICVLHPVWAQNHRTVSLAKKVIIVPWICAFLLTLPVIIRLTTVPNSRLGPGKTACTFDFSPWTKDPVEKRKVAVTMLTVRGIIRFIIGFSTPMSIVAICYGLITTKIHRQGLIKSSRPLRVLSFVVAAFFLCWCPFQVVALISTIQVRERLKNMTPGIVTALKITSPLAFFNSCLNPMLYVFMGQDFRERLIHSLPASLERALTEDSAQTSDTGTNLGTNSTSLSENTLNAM
Protocol: Neutrophil ctx and 100 nM fMLP were used.

C5aR = target: T7, C5aR (Mus musculus, UniProt P30993); assay: C5aR-dependent mouse BM neutrophil chemotaxis to C5a; type: cell-based; conditions: 100 nM C5a
T7 construct: endogenous in cells; host or cells: mouse bone-marrow neutrophils
T7 sequence (P30993 1-351): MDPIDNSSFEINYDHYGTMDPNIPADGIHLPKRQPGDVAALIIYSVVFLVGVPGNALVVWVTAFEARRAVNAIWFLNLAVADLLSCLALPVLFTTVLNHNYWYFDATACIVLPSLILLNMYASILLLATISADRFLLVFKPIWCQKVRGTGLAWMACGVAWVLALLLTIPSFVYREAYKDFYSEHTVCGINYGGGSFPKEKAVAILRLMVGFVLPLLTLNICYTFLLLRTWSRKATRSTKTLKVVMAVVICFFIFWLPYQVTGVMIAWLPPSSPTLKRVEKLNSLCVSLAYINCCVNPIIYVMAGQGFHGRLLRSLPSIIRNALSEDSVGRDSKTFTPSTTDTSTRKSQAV
Protocol: Neutrophil ctx and 100 nM C5a were used.

[3] = system: huCMKLR1/βARR CHO, huCMKLR1/L1.2 cell lines and splenocytes; assay: In vitro cytotoxicity, annexin V FITC / propidium iodide assay; type: cell-based; conditions: 90 minute incubation at 37° C., huCMKLR1/L1.2, splenocytes
Protocol: The in vitro cytotoxicity of aNETA can be determined with an annexin V FITC assay kit. […] The analysis can be performed with a FITC-conjugated annexin-V, which has a strong affinity for extracellular phosphatidylserines, and the fluorescent intercalating agent propidium iodide (PI).
With reference to FIG. 11, cell lines (huCMKLR1/βARR CHO and huCMKLR1/L1.2) and splenocytes were used. aNETA was tested with 90 minute incubation at 37° C.

[4] = system: experimental autoimmune encephalomyelitis (EAE); assay: Clinical EAE in vivo (MOG 35-55 induced); conditions: mouse; for Onset of EAE / Animals that developed EAE (disease incidence): subcutaneous; for Onset of EAE: 10% captisol
[5] = system: leukocyte infiltration of CNS in EAE; assay: Leukocyte infiltration of CNS in EAE; type: in vivo, mouse; conditions: EAE mice
huCMKLR1 [6] = target: T8, huCMKLR1 (Homo sapiens, UniProt Q99788); assay: Inhibition of chemerin-triggered huCMKLR1 association with beta-arrestin2 (PathHunter CHO-K1 enzyme fragment complementation); type: cell-based; set-up: host or cells: CHO-K1
T8 sequence (Q99788 1-373): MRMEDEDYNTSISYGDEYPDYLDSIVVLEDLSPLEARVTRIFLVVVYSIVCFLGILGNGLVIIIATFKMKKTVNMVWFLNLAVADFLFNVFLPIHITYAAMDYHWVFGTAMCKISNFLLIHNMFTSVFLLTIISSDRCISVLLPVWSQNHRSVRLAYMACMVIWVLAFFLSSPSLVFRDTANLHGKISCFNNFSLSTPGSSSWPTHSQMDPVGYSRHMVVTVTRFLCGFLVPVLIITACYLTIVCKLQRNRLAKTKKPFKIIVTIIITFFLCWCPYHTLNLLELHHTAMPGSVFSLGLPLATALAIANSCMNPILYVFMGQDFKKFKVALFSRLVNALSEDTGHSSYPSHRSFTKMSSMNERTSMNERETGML
Description: With reference to FIG. 1, early event in receptor internalization is ligand-triggered association with beta-arrestin2. This process turns off receptor signaling. Enzyme complementation can be used to measure CMKLR1 association with beta-arrestin2. In this assay β-Galactosidase is split into two complementary enzyme fragments, one is attached to CMKLR1, the other to beta-arrestin2. If ligand interaction with CMKLR1 promotes its association with β-arrestin2, the enzyme fragments join and become active. An assay, such as PathHunter® CHO-K1 CMKLR1 β-Arrestin GPCR Assays (DiscoverX, Inc., Fremont, Calif.) can provide a method for monitoring activation of the CMKLR1 GPCR receptor through arrestin recruitment in live cells. CMKLR1 cells are engineered to co-express a ProLink (PK)-tagged GPCR and the Enzyme Acceptor (EA)-tagged β-Arrestin fusion proteins. Upon GPCR activation, the two enzyme fragments are brought together, forming an active β-Gal enzyme through Enzyme Fragment Complementation (EFC). A LOPAC (Library of Pharmacologically Active Compounds) library (Sigma-Aldrich, St. Louis, Mo.) was screened for inhibition of chemerin-triggered […]1 association with βARR. Three hits were obtained from a primary screen of LOPAC library. […] The assay was performed in both buffer (10% FBS) or 100% human serum.

huCMKLR1 [7] = target: T8, huCMKLR1; assay: Inhibition of chemerin-triggered human CMKLR1/L1.2 cell migration; type: cell-based; set-up: expressed in transfected cells; host or cells: L1.2 cells; conditions: 1 nM chemerin
Protocol: 2-(alpha-Naphthoyl)ethyltrimethyl ammonium iodide (aNETA) was tested for inhibition of chemerin-triggered human CMKLR1/L1.2 cell migration. huCMKLR1/L1.2 ctx and 1 nM chemerin were used. The assay was performed in 0.5% BSA, buffer (10% FBS), or 100% human serum.

IC50 (mouse CMKLR1; 0.5% BSA): 9600 nM | IC50 (mouse CMKLR1; 100% human serum): 1200 nM | IC50 (mouse CMKLR1; buffer (10% FBS)): 1100 nM | Inhibition of CXCR4-dependent MOLT-4 migration to CXCL12 (CXCR4 [1]): does not inhibit | Inhibition of CCR9-dependent MOLT-4 migration to CCL25 (CCR9): does not inhibit | Inhibition of CXCR4-dependent mouse splenocyte migration to CXCL12 (CXCR4 [2]): does not inhibit | Inhibition of CCR7-dependent mouse splenocyte migration to CCL19 (CCR7): does not inhibit | Inhibition of FPR-dependent mouse BM neutrophil chemotaxis to fMLP (FPR): does not inhibit | Inhibition of C5aR-dependent mouse BM neutrophil chemotaxis to C5a (C5aR): does not inhibit | IC50 (huCMKLR1 [6]; 100% human serum, huCMKLR1/βARR CHO cells, 7 nM chemerin, read-out: IC50, inhibition of chemerin-triggered huCMKLR1 association with βARR): 620 nM | IC50 (huCMKLR1 [6]; buffer (10% FBS), huCMKLR1/βARR CHO cells, 7 nM chemerin, read-out: IC50, inhibition of chemerin-triggered huCMKLR1 association with βARR): 350 nM | IC50 (huCMKLR1 [6]; in vitro cell-based bioassay, read-out: IC50, inhibition of chemerin mediated beta-arrestin2 association with CMKLR1): ~350 nM | IC50 (huCMKLR1 [7]; 0.5% BSA): 1200 nM | IC50 (huCMKLR1 [7]; 100% human serum): 1300 nM | IC50 (huCMKLR1 [7]; buffer (10% FBS)): 1200 nM
Structure (SMILES): C[N+](C)(C)CCC(=O)c1cccc2ccccc12.[I-] [aNETA, 2-(alpha-naphthoyl)ethyltrimethyl ammonium iodide]
In vitro cytotoxicity (annexin V / PI) [3]: does not appear to be acutely toxic | Onset of EAE ([4]; 1 mg/kg daily): 17.8 days post-immunization | Animals that developed EAE (disease incidence) ([4]; 3 mg/kg daily, 3/16): 19% | Onset of EAE ([4]; 10 mg/kg daily): 26 days post-immunization | Animals that developed EAE (disease incidence) ([4]; 10 mg/kg daily, 1/16): 7% | Effect on onset of EAE ([4]; 10 mg/kg s.c. daily for 8 days, then every other day): significantly delayed | Leukocyte infiltration of the CNS compared to vehicle ([5]; daily 10 mg/kg): fewer leukocytes present | Leukocytes in the spleen compared to vehicle ([5]; daily 10 mg/kg and 3 mg/mg): more leukocytes present
